Test [1] relates to Paracentrotus lividus. Kind of test: Antimitotic activity against sea urchin embryo assessed as embryo spinning measured 2.5 to 6 hrs post-fertilization observed after 15 min to 20 hrs of treatment by light microscopy analysis. It counts as functional. Particulars: time hrs 0.25-20.
In another test the target is Tubulin (Homo sapiens) (UniProt P68371+Q9H4B7+P0DPH7+P68366+Q13509+Q71U36+P04350+Q3ZCM7+P07437+P68363+Q9BQE3+Q6PEY2+Q13885+Q9BVA1+Q9BUF5). Kind of test: Binding affinity to tubulin (unknown origin) assessed as change in gibbs free energy. In kind it is protein-complex assay.
Test [2] concerns Paracentrotus lividus. The experiment in a line: Antimitotic activity against sea urchin embryo assessed as cleavage alteration measured 2.5 to 6 hrs post-fertilization by light microscopy analysis. It counts as functional.
For test [3], the system named is Paracentrotus lividus. Kind of test: Antimitotic activity against sea urchin embryo assessed as cleavage arrest measured 2.5 to 6 hrs post-fertilization by light microscopy analysis. It counts as functional. The settings on record: time hrs 2.5-6.
Test [4] concerns Paracentrotus lividus. The experiment in a line: Antimitotic activity against sea urchin embryo assessed as cleavage arrest by phase microscopy analysis. It counts as functional.
The subject of a further test is K562. The experiment in a line: Cytotoxicity against human K562 cells. It counts as functional, cell-based.
The test system of test [5] is Panel NCI-60 (60 carcinoma cell lines). Kind of test: Cytotoxicity against human NCI60 cells. In kind it is functional.
The next test has as its system MDA-MB-435. The experiment in a line: Cytotoxicity against human MDA MB 435 cells. It counts as functional.

pIC50: −log10 of the molar value.

As a reminder, the pIC50 is the negative decadic logarithm of the IC50, by convention in mol/L. Read a low pIC50 as a large IC50. The term GI50 denotes the concentration giving 50% growth inhibition. The low end stands for more potent growth inhibition, the high end for less potent growth inhibition.

For the compound `COc1ccc(-c2oncc2-c2ccccc2)cc1`, the EC was over 5 µM with Paracentrotus lividus [1], 0.2 µM in the test with Paracentrotus lividus [2] and 2 µM in the test with Paracentrotus lividus [3]. Besides, at Tubulin (Homo sapiens), the deltaG is -9.15 kcal/mol.
Turning to `COc1ccc(-c2nocc2-c2ccccc2)cc1`, the EC was determined as 2 µM with Paracentrotus lividus [1], 0.2 µM in the test with Paracentrotus lividus [2] and 2 µM with Paracentrotus lividus [3]. In addition, on Tubulin (Homo sapiens), the deltaG is -9.15 kcal/mol.
Turning to `COc1cc2c(c(OC)c1OC)-c1cc3c(cc1[C@H](OC(C)=O)[C@H]1COC(=O)[C@@H]1C2)OCO3` [(-)-STEGANACIN], the EC with Paracentrotus lividus [4] was 0.3 µM.
Consider `COc1cc2c(c(OC)c1OC)-c1ccc(OC)c(=O)cc1[C@@H](NC(C)=O)CC2` [COLCHICINE], for which the EC with Paracentrotus lividus [1] is 0.05 µM; in the test with Paracentrotus lividus [2] it was 0.05 µM; in the test with Paracentrotus lividus [3], 0.1 µM.
In the case of `COc1cc([C@@H]2c3cc4c(cc3[C@H](O)[C@H]3COC(=O)[C@H]23)OCO4)cc(OC)c1OC` [PODOFILOX], the values for the EC in the test with Paracentrotus lividus [1], in the test on Paracentrotus lividus [2] and with Paracentrotus lividus [3] were 0.5 µM, 0.02 µM and 0.05 µM, respectively.
Take `COc1ccc(-c2nocc2-c2cc(OC)c(OC)c(OC)c2)cc1`: at Tubulin (Homo sapiens), the deltaG was -10.9 kcal/mol.
As to `COc1ccc(-c2cnoc2-c2ccccc2)cc1`, the EC in the test with Paracentrotus lividus [1] stood at 0.1 µM; in the test with Paracentrotus lividus [2], 0.002 µM; in the test with Paracentrotus lividus [3] it was 0.02 µM. On Tubulin (Homo sapiens), the deltaG is -11.9 kcal/mol.
Consider `COc1ccc(/C=C\c2cc(OC)c(OC)c(OC)c2)cc1O` [COMBRETASTATIN A4], for which the EC amounted to 0.05 µM with Paracentrotus lividus [1], 0.002 µM in the test on Paracentrotus lividus [2] and 0.01 µM in the test with Paracentrotus lividus [3]. Besides, the deltaG on Tubulin (Homo sapiens) was -11.9 kcal/mol. This compound also gave a pIC50 in the test on K562 of 9.00.
As to `COc1ccc(-c2conc2-c2ccccc2)cc1`, the EC amounted to 0.1 µM with Paracentrotus lividus [1], 0.005 µM with Paracentrotus lividus [2] and 0.05 µM with Paracentrotus lividus [3]. In addition, the deltaG on Tubulin (Homo sapiens) was -11.3 kcal/mol. This compound also gave a pIC50 in the test with K562 of 7.33. Further, the GI50 in test [5] was 457 nM; in the test on MDA-MB-435 it was 26 nM.
In the case of `COc1cc(-c2cc(-c3cccc(O)c3)cnc2N)cc(OC)c1OC`, the results for the EC with Paracentrotus lividus [1], with Paracentrotus lividus [2] and with Paracentrotus lividus [3] were 1 µM, 0.1 µM and 1 µM, respectively.

Source of the values: ChEMBL document CHEMBL4699565, “Computational modeling and target synthesis of monomethoxy-substituted o-diphenylisoxazoles with unexpectedly high antimitotic microtubule destabilizing activity” (Bioorg Med Chem Lett, 2020).
